Assays:
[1] = molecular target: T1, human recombinant ADAMTS1 expressed in the murine myeloma cell line (R&D Systems) (Homo sapiens, UniProt Q9UHI8); assay: FRET peptide cleavage assay (Abz/Dnp), dose-response; format: biochemical
T1 construct: commercial recombinant protein from R&D Systems, murine myeloma cell line
T1 sequence (Q9UHI8 253-967): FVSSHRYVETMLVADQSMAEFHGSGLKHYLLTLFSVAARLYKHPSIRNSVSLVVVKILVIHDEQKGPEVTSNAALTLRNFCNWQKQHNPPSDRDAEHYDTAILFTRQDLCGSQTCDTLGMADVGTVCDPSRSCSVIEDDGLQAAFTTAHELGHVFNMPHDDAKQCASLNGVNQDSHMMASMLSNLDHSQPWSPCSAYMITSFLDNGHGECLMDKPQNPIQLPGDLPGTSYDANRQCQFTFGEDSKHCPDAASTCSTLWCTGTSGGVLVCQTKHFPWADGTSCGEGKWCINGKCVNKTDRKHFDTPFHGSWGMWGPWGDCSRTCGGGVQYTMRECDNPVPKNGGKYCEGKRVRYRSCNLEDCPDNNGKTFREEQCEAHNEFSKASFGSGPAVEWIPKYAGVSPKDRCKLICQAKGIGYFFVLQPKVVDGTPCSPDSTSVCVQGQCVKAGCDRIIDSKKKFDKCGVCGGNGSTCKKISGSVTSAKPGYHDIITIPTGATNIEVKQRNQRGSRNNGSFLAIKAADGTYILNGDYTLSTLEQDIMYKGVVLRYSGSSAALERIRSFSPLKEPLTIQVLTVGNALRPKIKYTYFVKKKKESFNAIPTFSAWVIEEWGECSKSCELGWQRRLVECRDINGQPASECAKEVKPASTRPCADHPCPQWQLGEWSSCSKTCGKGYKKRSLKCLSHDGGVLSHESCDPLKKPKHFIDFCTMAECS
From the text: FRET peptide cleavage assay (Abz/Dnp), dose-response on human recombinant ADAMTS1 expressed in the murine myeloma cell line (R&D Systems)

[2] = molecular target: T2, recombinant ADAMTS1 (p65-ADAMTS1) expressed in E. coli (Homo sapiens, UniProt Q9UHI8); assay: as above; format: biochemical
T2 construct: 1452 nt cDNA fragment (nt 1206-2657, 484 codons; propeptide and C-terminal part absent; primer starts at KRFVSS, ends ISGSVTSA); pET32a Trx fusion, Trx removed by enterokinase, C-terminal His tag; E. coli BL21(DE3); heparin-sepharose purified; fusion about 70 kDa
T2 sequence (Q9UHI8 251-734): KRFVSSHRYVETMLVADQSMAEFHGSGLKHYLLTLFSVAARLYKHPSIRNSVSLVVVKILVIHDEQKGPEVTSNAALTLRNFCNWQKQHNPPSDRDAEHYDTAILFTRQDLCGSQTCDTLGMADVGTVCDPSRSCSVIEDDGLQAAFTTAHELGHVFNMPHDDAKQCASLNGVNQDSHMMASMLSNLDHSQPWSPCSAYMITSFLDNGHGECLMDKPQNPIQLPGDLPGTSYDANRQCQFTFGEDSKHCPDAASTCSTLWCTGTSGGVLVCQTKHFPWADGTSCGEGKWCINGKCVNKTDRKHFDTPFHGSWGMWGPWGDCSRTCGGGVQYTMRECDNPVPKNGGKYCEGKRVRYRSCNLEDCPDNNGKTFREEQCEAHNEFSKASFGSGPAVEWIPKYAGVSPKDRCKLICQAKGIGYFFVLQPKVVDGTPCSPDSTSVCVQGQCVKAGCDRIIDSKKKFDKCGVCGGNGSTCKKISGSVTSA
From the text: FRET peptide cleavage assay (Abz/Dnp), dose-response on recombinant ADAMTS1 (p65-ADAMTS1) expressed in E. coli

Compound | IC50 [1] [µM] | IC50 [2] [µM]
CC1=C[C@H](c2cc3cc(-c4cc(O)cc(O)c4)oc3cc2O)[C@@H](C(=O)c2ccc(O)cc2O)[C@H](c2ccc(O)cc2O)C1 [J14715, albafuran C] | 10.7 ± 0.6 | 11.9 ± 0.7
CC1=C[C@H](c2cc(/C=C/c3cc(O)cc(O)c3)c(O)cc2O)[C@@H](C(=O)c2ccc(O)cc2O)[C@H](c2ccc(O)cc2O)C1 [J14713, kuwanon P] | 5.5 ± 0.4 | 7.6 ± 0.6

— article PMC6264766, “Fluorescence Resonance Energy Transfer Assay for High-Throughput Screening of ADAMTS1 Inhibitors” (Molecules, 2011)
